Source: PubChem BioAssay AID1963869 (Molecular Pharmacology Branch, DTP, NCI, 2024)

System: KRAS patient-derived spheroids with HUVEC/MSC, viability
Test: Anticancer human tumor 323965-272-R-J2-PDC patient-derived pancreatic carcinoma cell line growth inhibition [KRAS2]
Conditions: for IC50: curve of first compound; for viability, T/C: stronger effect = lower value
Summary of the method: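 Combination screen of spheroid viability in tumor-cell co-cultures with endothelial (HUVEC) and mesenchymal stem cell stroma. Each agent was tested in half-log dilutions, topping at clinical Cmax or at 10 microM without a known Cmax.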

[1] = second compound 0.1 µM, first compound 0.0316 µM
[2] = second compound 0.1 µM, first compound 0.1 µM
[3] = second compound 0.316 µM, first compound 0.0316 µM
[4] = second compound 0.316 µM, first compound 0.1 µM
[5] = second compound 1 µM, first compound 0.0316 µM
[6] = second compound 1 µM, first compound 0.1 µM
[7] = second compound 3.16 µM, first compound 0.0316 µM
[8] = second compound 3.16 µM, first compound 0.1 µM
[9] = second compound 10 µM, first compound 0.0316 µM
[10] = second compound 10 µM, first compound 0.1 µM
[11] = second compound 0.1 µM, first compound 0.316 µM
[12] = second compound 0.1 µM, first compound 1 µM
[13] = second compound 0.1 µM, first compound 3.16 µM
[14] = second compound 0.1 µM, first compound 10 µM
[15] = second compound 0.316 µM, first compound 0.316 µM
[16] = second compound 0.316 µM, first compound 1 µM
[17] = second compound 0.316 µM, first compound 3.16 µM
[18] = second compound 0.316 µM, first compound 10 µM
[19] = second compound 1 µM, first compound 0.316 µM
[20] = second compound 1 µM, first compound 1 µM
[21] = second compound 1 µM, first compound 3.16 µM
[22] = second compound 1 µM, first compound 10 µM
[23] = second compound 3.16 µM, first compound 0.316 µM
[24] = second compound 3.16 µM, first compound 1 µM
[25] = second compound 3.16 µM, first compound 3.16 µM
[26] = second compound 3.16 µM, first compound 10 µM
[27] = second compound 10 µM, first compound 0.316 µM
[28] = second compound 10 µM, first compound 1 µM
[29] = second compound 10 µM, first compound 3.16 µM
[30] = second compound 10 µM, first compound 10 µM
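Also: spheroids exposed to agents for 7 days.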
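For viability, T/C in this document: 100% = DMSO vehicle control viability.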

| Structure (SMILES) | IC50 (second compound 0.1 µM) | IC50 (second compound 0.316 µM) | IC50 (second compound 1 µM) | IC50 (second compound 3.16 µM) | IC50 (second compound 10 µM) | viability, T/C [1] | viability, T/C [2] | viability, T/C [3] | viability, T/C [4] | viability, T/C [5] | viability, T/C [6] | viability, T/C [7] | viability, T/C [8] | viability, T/C [9] | viability, T/C [10] | viability, T/C [11] | viability, T/C [12] | viability, T/C [13] | viability, T/C [14] | viability, T/C [15] | further results |
| --- | --- | --- | --- | --- | --- | --- | --- | --- | --- | --- | --- | --- | --- | --- | --- | --- | --- | --- | --- | --- | --- |
| CC(C)n1nc(-c2ccc3oc(N)nc3c2)c2c(N)ncnc21 + CNCc1ccccc1-c1csc(C(C)Nc2nc(C)nc3cc(OC)c(OC)cc23)c1 | 2.12 nM | 2 nM | 2.72 nM | 2.45 nM | < 0.316 nM | 22.7% | 17.9% | 19.3% | 16.8% | 19.1% | 15.6% | 9.29% | 9.2% | 0.12% | 0.35% | – | – | – | – | – | viability, T/C (second compound 0.1 µM, first compound 0.000316 µM): 84.4%; viability, T/C (second compound 0.1 µM, first compound 0.001 µM): 58.7%; viability, T/C (second compound 0.1 µM, first compound 0.00316 µM): 47.6%; viability, T/C (second compound 0.1 µM, first compound 0.01 µM): 30.1%; viability, T/C (second compound 0.316 µM, first compound 0.000316 µM): 78.2%; viability, T/C (second compound 0.316 µM, first compound 0.001 µM): 60.8%; viability, T/C (second compound 0.316 µM, first compound 0.00316 µM): 43.1%; viability, T/C (second compound 0.316 µM, first compound 0.01 µM): 28.2%; viability, T/C (second compound 1 µM, first compound 0.000316 µM): 80.6%; viability, T/C (second compound 1 µM, first compound 0.001 µM): 71.5%; viability, T/C (second compound 1 µM, first compound 0.00316 µM): 44.6%; viability, T/C (second compound 1 µM, first compound 0.01 µM): 29.8%; viability, T/C (second compound 3.16 µM, first compound 0.000316 µM): 89%; viability, T/C (second compound 3.16 µM, first compound 0.001 µM): 76%; viability, T/C (second compound 3.16 µM, first compound 0.00316 µM): 42.9%; viability, T/C (second compound 3.16 µM, first compound 0.01 µM): 16%; viability, T/C (second compound 10 µM, first compound 0.000316 µM): 0.23%; viability, T/C (second compound 10 µM, first compound 0.001 µM): 0.23%; viability, T/C (second compound 10 µM, first compound 0.00316 µM): 0.19%; viability, T/C (second compound 10 µM, first compound 0.01 µM): 0.16% |
| CC1(C)CCC(CN2CCN(c3ccc(C(=O)NS(=O)(=O)c4ccc(NCC5CCOCC5)c([N+](=O)[O-])c4)c(Oc4cnc5[nH]ccc5c4)c3)CC2)=C(c2ccc(Cl)cc2)C1 + CNCc1ccccc1-c1csc(C(C)Nc2nc(C)nc3cc(OC)c(OC)cc23)c1 | 1820 nM | 1680 nM | 1910 nM | 1430 nM | < 31.6 nM | 94.5% | 94.2% | 83% | 91.8% | 106% | 104% | 104% | 102% | 0.23% | 0.28% | 86.2% | 87.8% | 14.9% | 5.18% | 92.5% | viability, T/C [16]: 81.2%; viability, T/C [17]: 12%; viability, T/C [18]: 2.51%; viability, T/C [19]: 99.2%; viability, T/C [20]: 94.8%; viability, T/C [21]: 15.3%; viability, T/C [22]: 1.65%; viability, T/C [23]: 98.7%; viability, T/C [24]: 71.3%; viability, T/C [25]: 1.61%; viability, T/C [26]: 1.05%; viability, T/C [27]: 0.27%; viability, T/C [28]: 0.19%; viability, T/C [29]: 0.14%; viability, T/C [30]: 0.18% |
| COc1cc2nccc(Oc3ccc(NC(=O)C4(C(=O)Nc5ccc(F)cc5)CC4)cc3)c2cc1OC + CNCc1ccccc1-c1csc(C(C)Nc2nc(C)nc3cc(OC)c(OC)cc23)c1 | > 10000 nM | > 10000 nM | > 10000 nM | 4240 nM | < 31.6 nM | 91.7% | 99.3% | 87.2% | 88.7% | 105% | 99% | 95.4% | 91.8% | 0.33% | 0.3% | 110% | 101% | 85.2% | 87.2% | 100% | viability, T/C [16]: 93.2%; viability, T/C [17]: 91.4%; viability, T/C [18]: 82%; viability, T/C [19]: 102%; viability, T/C [20]: 101%; viability, T/C [21]: 92.6%; viability, T/C [22]: 72.7%; viability, T/C [23]: 92.2%; viability, T/C [24]: 91.6%; viability, T/C [25]: 66.5%; viability, T/C [26]: 1.54%; viability, T/C [27]: 0.27%; viability, T/C [28]: 0.75%; viability, T/C [29]: 0.33%; viability, T/C [30]: 0.34% |
